From patent publication US6548530B1, “CBI analogs of CC-1065 and the duocarmycins” (The Scripps Research Institute, priority 1995, dated 2003)
Where two headings read alike, the source gives them in different places.

How the values were obtained:
[1] = tested on: double-stranded DNA (clone w794); experiment: DNA alkylation of 5′ end-labeled duplex DNA (thermally-induced strand cleavage, PAGE, autoradiography); assay type: biochemical; conditions: for DNA alkylation efficiency, fold less efficient than (+)-CBI-CDPI1 (26): natural enantiomers
Description: FIG. 21 illustrates the thermally-induced strand cleavage of double-stranded DNA (144 bp, nucleotide no. 138-5238, clone w794) after 24 h incubation of agent-DNA at 4° C. followed by removal of unbound agent and 30 inutes incubation at 100° C.; denaturing 8% polyacrylamide gel and autoradiography. Lanes 1-4, Sanger G,C,A, and T sequencing reactions; lane 5, control labeled w794 DNA; lanes 6-8, (+)-CPI-indole2 ((+)-4, 1×10^−4-1×10^−6 M); lanes 9-11, (+)-CBI-indole2 ((+)-27, 1×10^−5-1×10^−7 M).
FIG. 22 illustrates the thermally-induced strand clealvage of 5′ end-labeled duplex DNA (clone w794, 144 bp, nucleotide no 138-5238). Incubation of agent-DNA at 25° C. (24 h) followed by removal of unbound agent and 30 min thermolysis at 100° C., denaturing 8% PAGE, and autoradiography. Lanes 1-2, ent-(−)-duocarmycin SA ((−)-2, 1×10^−6 and 1×10^−7 M); lanes 3-5, (+)-duocarmycin SA, ((+)-2, 1×10^−6-1×10^−8 M); lanes 6-9, G, C, A and T sequencing reactions; lane 10, control labeled w794 DNA; lanes 11-13, (+)-CBI-TMI ((+)-29, 1×10^−6-1×10^−8 M); lanes 14-15, ent-(−)-CBI-TMI ((−)-29, 1×10^−5 and 1×10^−6 M).
FIGS. 23A-23B represent the following: Top: Plot of % integrated optical density (% IOD) versus time established through autoradiography of 5′ ^32P end-labeled DNA and used to monitor the relative rate of w794 alkylation at the 5′-AATTA high affinity site for (+)-CBI-indole2 (27) and (+)-CPI-indole2 (4); 37° C., 0-5 d, 1×10^−5 M agent. Bottom: Plot of % integrated optical density (% IOD) versus time established through autoradiography of 5′ ^32P end-labeled DNA and used to monitor the relative rate of w794 alkylation at the 5′-AATTA high affinity site for (+)-duocarmycin SA (2) and (+)-CBI-TMI (29); 4° C., 0-24 h, 1×10^−6 M agent.
DNA Alkylation Studies. General procedures, the preparation of singly ^32P 5′ end-labeled double-stranded DNA, the agent binding studies, gel electrophoresis, and autoradiography were conducted according to procedures described in full detail elsewhere. (Boger et. al Tetrahedron 1991, 47, 2661). Eppendorf tubes containing the 5′ end-labeled DNA (9 μL, w794 and w836) in TE buffer (10 mM Tris, 1 mM EDTA, pH 7.5) were treated with the agent DIMETHYLSULFOXIDE (1 μL at the specified concentration). The solution was mixed by vortexing and brief centrifugation and subsequently incubated at 25° C. for 3 days. The covalently modified DNA was separated from unbound agent by Ethanol precipitation and resuspended in TE buffer (10 μL). The solution of DNA in an Eppendorf tube sealed with parafilm was heated at 100° C. for 30 min to induce cleavage at the alkylation sites, allowed to cool to 25° C. and centrifuged. Formamide dye (0.33% xylene cyanol FF, 0.03% bromophenol blue, 8.7% Na2EDTA 250 mM) was added (5 μL) to the supernatant. Prior to electrophoresis, the sample was denatured by warming at 100° C. for 5 min, placed in an ice bath, and centrifuged, before the supernatant (3 μL) was loaded directly onto the gel. Sanger dideoxynucleotide sequencing reactions were run as standards adjacent to the reaction samples. Polyacrylamide gel electrophoresis (PAGE) was run on an 8% sequencing gel under denaturing conditions (8 M urea) in TBE buffer (100 mM Tris, 100 mM boric acid, 0.2 mM Na2EDTA) followed by autoradiography.
DNA Alkylation Studies of 2-5: Selectivity and Efficiency. Eppendorf tubes containing singly ^32P 5′-end-labeled double-stranded DNA^10 (9 μL) in TE buffer (10 mM Tris, 1 mM EDTA, pH 7.5) were treated with the agents 190-196 in DIMETHYLSULFOXIDE (1 μL, at the specified concentrations). The solutions were mixed by vortexing and brief centrifugation and subsequently incubated at 4° C. for 24 h. The covalently modified DNA was separated from unbound agent by Ethanol precipitation of the DNA. The Ethanol precipitations were carried out by adding t-RNA as a carrier (1 μL, 10 1μg/μL), a buffer solution containing salt (0.1 volume, 3 M NaOAc in TE) and −20° C. Ethanol (2.5 volumes). […]

L1210 [2] = experiment: in vitro cytotoxic activity (L1210)
solubility properties = assay type: physicochemical; conditions: polar protic or aprotic solvents, water, nonpolar solvents
[3] = in vivo; cited from earlier work
[4] = (+)-enantiomer; cited from earlier work
L1210 [5] = conditions: cited from earlier work
[6] = Mus musculus, L1210, read-out: cytotoxic potency

Compound: NC(=O)N1CCc2c1ccc1[nH]c(C(=O)N3C[C@H]4C[C@@]45C3=CC(=O)c3ccccc35)cc21 [Compound 26, CBI-CDPI1]
- DNA alkylation selectivity (sequence) ([1]; (+)-enantiomer): 5′-A/TA/TA/TA
- DNA alkylation selectivity (sequence) ([1]; ent-(−)-enantiomer): 5′-A/TAA/TA/T

Compound: COc1cc2cc(C(=O)N3CC4CC45C3=CC(=O)c3ccccc35)[nH]c2c(OC)c1OC (centres unmarked) [Compound 29, CBI-TMI]
- relative rate of DNA alkylation k(29)/k(2) ([1]; 5′-AATTA high affinity site of w794 DNA, 4° C., 0-24 h, 1×10^−6 M agent): 0.9

Compound: COc1c(O)c2c(c3cc(C(=O)N4CCc5c4c(O)c(OC)c4[nH]c(C(=O)N6C[C@H]7C[C@@]78C6=CC(=O)c6[nH]cc(C)c68)cc54)[nH]c13)CCN2C(N)=O [(+)-CC-1065, CC-1065]
- IC50 (L1210 [2]; L1210): 0.02 nM
- solubility (solubility properties): essentially insoluble in all solvents except DMSO or DMF
- delayed toxicity [3]: exhibited the delayed toxicity

Compound: (+)-CPI-PDE-I1 [reference compound]
- IC50 (L1210 [2]; L1210): 0.02 nM

Compound: Cc1c[nH]c2c1[C@@]13C[C@@H]1CN(C(=O)c1cc4c5c(ccc4[nH]1)N(C(=O)c1cc4c6c(ccc4[nH]1)N(C(N)=O)CC6)CC5)C3=CC2=O [(+)-CPI-CDPI2]
- delayed toxicity [3]: exhibited the delayed toxicity

Compound: NC(=O)N1CCc2c1ccc1oc(C(=O)N3C[C@H]4CC45C3=CC(=O)c3ccccc35)nc21 (some centres unmarked) [Compound 62, CBI-CDPBO1]
- IC50 (L1210 [2]; [6]): 0.5 to 1 nM
- DNA alkylation efficiency, fold less efficient than (+)-CBI-CDPI1 (26) [1]: approximately 100 ×

Compound: Cl.NNC(=O)N1CC(CCl)c2c1cc(O)c1ccccc21 (centres unmarked) [Compound 73, 1-(Chloromethyl)-3-(hydrazino)carbonyl-5hydroxy-1,2-dihydro-3H-benz[e]indole hydrochloride]
- in vitro cytotoxic activity compared with N-BOC-CBI (9) (L1210 [2]): more potent
- in vitro cytotoxic activity, fold more potent than tert-butylcarbazate precursor 72 (L1210 [2]; free semicarbazide versus 72): ca. 100 ×
- in vitro cytotoxic activity, fold less potent than (+)-CC-1065 (L1210 [2]; seco precursor with free amine): 100 ×

Compound: O=C(Nc1ccc2[nH]c(C(=O)N3CC4CC45C3=CC(=O)c3ccccc35)cc2c1)c1cc2ccccc2[nH]1 (centres unmarked) [Compound 27]
- cytotoxic potency compared with (+)-CC-1065 (L1210 [2]; (+)-enantiomer): comparable
- cytotoxic potency, fold greater than (+)-CPI-indole2 (4, U71,184) (L1210 [2]; (+)-enantiomer): 4 ×
- relative rate of DNA alkylation k(27)/k(4) ([1]; single high affinity site (5′-AATTA) of w794 DNA, 37° C., 0-5 d, 1×10^−5 M agent): 14
- DNA alkylation efficiency, fold more efficient than (+)-CPI-indole2 (4) ([1]; w794, 4° C. or 37° C., (+)-enantiomers): 10 ×
- delayed toxicity [3]: lacked the delayed fatal toxicity
- in vivo antitumor activity [4]: potent and efficacious

Compound: COc1c(O)c2c(c3cc(C(=O)N4CCc5c4c(O)c(OC)c4[nH]c(C(=O)N6CC7CC78C6=CC(=O)c6[nH]cc(C)c68)cc54)[nH]c13)CCN2C(N)=O (stereo not drawn) [ent-(−)-CC-1065]
- cytotoxicity compared with natural (+)-CC-1065 (L1210 [5]): equally cytotoxic
- delayed toxicity [3]: has not been observed

Compound: NC(=O)N1CCc2c1ccc1[nH]c(C(=O)N3C[C@H]4CC45C3=CC(=O)c3ccccc35)nc21 (some centres unmarked) [Compound 64, N^2-[(3′-carbamoyl-1′,2′-dihydro-3′H-pyrrolo[3′,2′-e]benzimidazol-7′-yl)carbonyl]-1,2,9,9a-tetrahydro-cyclopropa-[c]-enz[e]-indol-4-one]
- IC50 (L1210 [2]; [6]): 0.5 to 1 nM
- DNA alkylation efficiency, fold less efficient than (+)-CBI-CDPI1 (26) [1]: approximately 100 ×
